The values that follow come from US10494379B2, “6-oxa-3,9,15-triaza-bicyclo[9.3.1]pentadeca-1(14),11(15),12-triene derivatives based compounds and their application as ligands of essential metal ion based MRI and 52MN based PET contrast agents” (DEBRECENI EGYETEM, priority 2015, dated 2019).

Structures are written as SMILES.

Data set [1] is described as follows: Equilibrium study: protonation constants and total basicity of the ligands. It counts as physicochemical. The note with it: 25° C., 0.15M NaCl. The procedure:
(§1) During the physico-chemical studies of tOPC2A, tOPC2M^Pyp and tOPC2M^Pro compounds prepared according to Example 1, 2, and 5, their protonation constants, as well as equilibrium behaviour and kinetic inertness of their Mn(II) complexes was studied in detail, and the characteristic relaxivity values of the complexes were determined in the presence and absence of HSA (Human Serum Albumin), at 25 and 37° C. and physiological pH. All studies were performed in the presence of 0.15 M NaCl, the same concentration as that of the electrolyte under physiological conditions.
(§2) The results of equilibrium study are summarized in Table 1, in addition to the protonation constants, total basicity of ligands and stability constants of their Mn(II) complexes, the pMn value calculated for complexes are also represented in the table.

Data set [2] in a line: Equilibrium study: stability constants of Mn(II) complexes and calculated pMn. It counts as physicochemical. The note with it: 25° C., 0.15M NaCl; for pMn: calculated from equilibrium constants at pH = 7.4 and cMn = cL = 10^−5 M. The procedure:
as §1, §2
Based on the pMn values presented in Table 1 (calculated using the equilibrium constants at pH=7.4 and cMn=cL=10^−5 M), it can be concluded that the studied Mn(II) complexes are formed in 100% at physiological pH, which is an essential aspect of the practical use.

For data set [3] the following is noted: cited from earlier work.
The conditions of data set [4]: literature values, 'under the same conditions'; cited from earlier work.

As to `O=C(CN1CCOCCN(CC(=O)N2CCCCC2)Cc2cccc(n2)C1)N1CCCCC1` [tOPC2AM^Pyp, 3,9-bis[2-oxo-2-(piperidin-1-yl)-ethyl]-6-oxa-3,9,15-triaza-bicyclo[9.3.1]pentadeca-1(14),11(15),12-triene], in data set [1], the “logK1 (protonation constant)” value is 7.91(2), the “logK2 (protonation constant)” value is 5.51(3) and the “ΣlogKi^H (total basicity)” value is 13.42. Moreover, in data set [2], the “logKMnL (stability constant of Mn(II) complex)” value (from here on “logKMnL”) is on record as 10.84(4) and the pMn was 7.60.
For `O=C(O)C1CCCN1C(=O)CN1CCOCCN(CC(=O)N2CCCC2C(=O)O)Cc2cccc(n2)C1` (stereo not shown) [tOPC2AM^Pro], in data set [1], the “logK1 (protonation constant)” value is 7.37(3), the “logK2 (protonation constant)” value was 5.14(4), the “logK3 (protonation constant)” value is recorded as 3.26(4) and the “logK4 (protonation constant)” value is listed as 2.40(4). Further, the “ΣlogKi^H (total basicity)” value in data set [1] came out at 18.17. In data set [2], the “logKMnL” value is given as 10.03(1) and the pMn is 7.37.
For `CNC[C@H](O)[C@@H](O)[C@H](O)[C@H](O)CO.CNC[C@H](O)[C@@H](O)[C@H](O)[C@H](O)CO.O=C([O-])CN(CCN(CC(=O)[O-])CC(=O)O)CCN(CC(=O)[O-])CC(=O)O.[Gd+3]` [MAGNEVIST], the “Gd(III) release at 37° C. relative to value calculated from experiments at 25° C.” value in data set [3] (37° C. vs 25° C.) is listed as 4.4 fold. Moreover, in data set [3] (37° C.), the “Gd(III) ion released during in vivo dissociation” value is on record as 2.2%. Also, in data set [4], the “r1 (relaxivity)” value is 4.02 mM⁻¹ s⁻¹.
As to `CNC[C@H](O)[C@@H](O)[C@H](O)[C@H](O)CO.O=C([O-])CN1CCN(CC(=O)[O-])CCN(CC(=O)O)CCN(CC(=O)[O-])CC1.[Gd+3]` [DOTAREM], the “r1 (relaxivity)” value in data set [4] was 3.83 mM⁻¹ s⁻¹.
On to `O=C(O)CN1CCOCCN(CC(=O)O)Cc2cccc(n2)C1` [tOPC2A, 4-oxo-1,7-diaza-2,6-pyridinophane-diacetate], for which, in data set [1], the “logK1 (protonation constant)” value is 7.73(2), the “logK2 (protonation constant)” value is given as 7.66(1), the “logK3 (protonation constant)” value was 2.13(1) and the “ΣlogKi^H (total basicity)” value is 17.52. In data set [2], the “logKMnL” value was 13.03(1) and the pMn is listed as 8.59.
